The source made the active and inactive calls. No cut-off for these calls is given here.
Legend:
[1] = target: T1, RAC-alpha serine/threonine-protein kinase (Homo sapiens, UniProt P31749); assay: Inhibition of AKT
[2] = Cytotoxicity against human MDA468 cells expressing AKT; assay type: functional, cell-based, MDA-MB-468; conditions: Homo sapiens, MDA-MB-468
[3] = target: T1, RAC-alpha serine/threonine-protein kinase; assay: Inhibition of AKT at < 10 uM

T1 sequence (P31749 whole entry): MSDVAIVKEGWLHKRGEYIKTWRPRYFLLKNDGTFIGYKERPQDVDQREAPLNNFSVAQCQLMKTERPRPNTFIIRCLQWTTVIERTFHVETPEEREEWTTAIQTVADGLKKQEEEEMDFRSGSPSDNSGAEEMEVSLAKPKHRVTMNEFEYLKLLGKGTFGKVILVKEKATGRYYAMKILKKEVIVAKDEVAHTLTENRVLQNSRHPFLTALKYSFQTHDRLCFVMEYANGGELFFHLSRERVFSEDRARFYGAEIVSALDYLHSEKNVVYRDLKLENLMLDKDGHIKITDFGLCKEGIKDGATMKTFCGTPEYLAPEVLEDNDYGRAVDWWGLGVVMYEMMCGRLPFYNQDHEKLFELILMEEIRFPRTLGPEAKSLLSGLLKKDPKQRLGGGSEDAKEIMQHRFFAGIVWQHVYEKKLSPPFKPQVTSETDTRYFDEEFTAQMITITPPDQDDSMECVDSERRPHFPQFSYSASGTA

Row | IC50 [1] [nM] | Activity [3] | Structure (SMILES) | IC50 [2] [nM]
1 | 1440 | – | CC1(C)O[C@@H]2CC(=O)O[C@@H]2C2=C1C(=O)c1ccccc1C2=O (racemic) | 230
2 | 383 | – | CCC[C@@H]1O[C@@H]2CC(=O)O[C@@H]2C2=C1C(=O)c1ccccc1C2=O (racemic) | 1300
3 | 198 | – | CCC[C@H]1O[C@@H]2CC(=O)O[C@@H]2C2=C1C(=O)c1c(O)cccc1C2=O [FRENOLICIN B] | 60
4 | 850 | – | Nc1ccc([C@@H]2O[C@@H]3CC(=O)O[C@@H]3C3=C2C(=O)c2ccccc2C3=O)cc1 (racemic) | 550
5 | – | inactive | CCOC(=O)C[C@@H]1CC2=C(C(=O)c3ccccc3C2=O)[C@H](c2ccc(O)cc2)O1 (racemic) | –
6 | 350 | – | O=C1C[C@H]2O[C@@H](c3cccc(O)c3)C3=C(C(=O)c4ccccc4C3=O)[C@H]2O1 (racemic) | 1000
7 | – | inactive | CCOC(=O)C[C@@H]1CC2=C(C(=O)c3ccccc3C2=O)C2(CCCC2)O1 (racemic) | –
8 | – | inactive | CCOC(=O)C[C@@H]1CC2=C(C(=O)c3ccccc3C2=O)[C@@H](c2ccsc2)O1 (stereo in doubt; (-)) | –
9 | 163 | – | CCC[C@H]1O[C@@H]2CC(=O)O[C@@H]2C2=C1C(=O)c1ccccc1C2=O (racemic) | 600
10 | – | inactive | CCOC(=O)C[C@@H]1CC2=C(C(=O)c3ccccc3C2=O)[C@@H](COCc2ccccc2)O1 (racemic) | –
11 | 295 | – | O=C1C[C@H]2OC3(CCCC3)C3=C(C(=O)c4ccccc4C3=O)[C@H]2O1 (racemic) | 1600
12 | – | inactive | CCOC(=O)C[C@@H]1CC2=C(CO1)C(=O)c1ccccc1C2=O | –
13 | 122 | – | O=C1C[C@H]2O[C@H](c3ccsc3)C3=C(C(=O)c4ccccc4C3=O)[C@H]2O1 (stereo in doubt; (+)) | 300
14 | – | inactive | CCOC(=O)C[C@@H]1CC2=C(C(=O)c3ccccc3C2=O)C(C)(C)O1 (racemic) | –
15 | 57 | – | O=C1C[C@H]2O[C@H](c3cccs3)C3=C(C(=O)c4ccccc4C3=O)[C@H]2O1 | 600
